Assay results reported in patent publication US6784165B1, “Treatment of heart rhythm disturbances with N6-substituted-5′-(N-substituted) carboxamidoadenosines” (Aderis Pharmaceuticals, Inc., priority 1999, dated 2004).

Legend:
adenosine A1 receptor [1] = assay: Rat isolated Langendorff heart paced at 360 bpm: AV conduction (S-V interval) and coronary blood flow; conditions: at 6.8 nM and 8.3 nM, rat isolated heart
Procedure: (§1) Rat isolated hearts were prepared according to the method of Langendorff in which the coronary vasculature was perfused in a retrograde fashion at constant pressure via the aorta. Coronary blood flow was determined by measuring the volume of fluid leaving the heart. Heart rate was maintained at 360 beats per minute by electrical pacing of the right atrium. Atrioventricular (AV) conduction was determined as the time from the atrial stimulus to the beginning of ventricular depolarization (S-V interval).

adenosine A1 receptor [2] = biological target: T1, adenosine A1 receptor (Rattus norvegicus, UniProt P25099); assay: as above; set-up: Rat isolated hearts were prepared according to the method of Langendorff; from tissue; host or cells: rat isolated perfused heart (Langendorff); conditions: rat isolated heart paced at 360 beats per minute
T1 sequence (P25099 1-326): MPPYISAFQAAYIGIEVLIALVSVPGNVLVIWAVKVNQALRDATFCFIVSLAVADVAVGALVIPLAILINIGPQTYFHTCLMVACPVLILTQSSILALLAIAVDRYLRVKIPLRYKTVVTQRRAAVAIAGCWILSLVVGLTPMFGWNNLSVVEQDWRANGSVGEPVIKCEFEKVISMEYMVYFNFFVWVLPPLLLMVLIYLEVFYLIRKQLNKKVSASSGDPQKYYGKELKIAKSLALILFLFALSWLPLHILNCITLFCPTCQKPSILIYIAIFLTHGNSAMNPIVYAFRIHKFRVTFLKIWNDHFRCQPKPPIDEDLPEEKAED
Procedure: as §1

[3] = system: guinea pig isolated spontaneously beating heart; assay: Guinea pig isolated spontaneously beating heart (Langendorff): heart rate and AV interval
Procedure: Guinea pig isolated hearts were prepared according to the method of Langendorff in which the coronary vasculature was perfused in a retrograde fashion at constant pressure via the aorta. Compound A was administered to the spontaneously beating hearts by infusion into the perfusion line supplying buffer to the coronary vasculature. The concentration of Compound A was adjusted by changes in the infusion rate and/or changes in the concentration of infusion solutions. The concentration of Compound A present in the perfusate was calculated by dividing the rate of Compound A infused by the coronary flow rate. Spontaneously beating heart rate and AV interval were recorded.

[4] = system: guinea pig isolated heart; assay: Guinea pig isolated heart paced at 300-360 bpm: AV conduction interval versus coronary perfusate flow
Procedure: (§2) Guinea pig isolated hearts were prepared according to the methods described in Example 5. In the first portion of the experiment designed to determine the effect of heart rate on the negative dromotropic activity of Compound A, hearts were allowed to beat spontaneously or electrically paced either at 200 beats per minute (approximately 20% above the spontaneous rate) or at 300-360 beats per minute (approximately 80% above the spontaneous rate). Atrioventricular (AV) conduction interval (AV interval) was determined as the time from the atrial stimulus to the beginning of ventricular depolarization. The AV interval measurements were performed at each pacing rate with increased concentrations of Compound A as described in Example 5. Upon electrical pacing at 200 beats per minute, Compound A at a mean concentration of 3.9 nM produced a mean maximal 58% increase in AV interval, and heart block at a mean minimal concentration of 5.1 nM. […] The results are summarized in the table below, with data from spontaneously beating hearts included for comparative purposes:
In order to determine the differential potencies of Compound A for negative […] activity versus coronary vasodilation in paced hearts, a different set of experiments was conducted in which individual hearts were used to collect measurements for each action. Experimental conditions as described in Example 6 were used, with guinea pig isolated hearts being paced at 300-360 beats per minute. AV conduction interval was determined as described in Example 6. Coronary perfusate flow data was determined by measuring the volume of fluid leaving the heart. AV conduction interval data and coronary perfusate flow data were collected in the presence of increasing concentrations of Compound A. The results are shown in FIG. 3, with dose-related increases for both AV conduction interval and coronary perfusate flow. The differential for these effects is readily apparent. The mean concentration of Compound A that produced a maximal increase in AV conduction time was 0.76 nM.

[5] = system: guinea pig isolated heart; assay: Guinea pig isolated heart model of paroxsymal supraventricular tachycardia (200/300/200 bpm pacing)
Procedure: as §2
Using the experimental conditions described in Example 6, individual hearts were paced at 200 bpm for one minute followed abruptly by one minute of pacing at 300 bpm, after which the pacing rate was returned to 200 bpm. The 300 bpm pacing cycle was intended to simulate an episode of supraventricular tachycardia. This pacing sequence was conducted in the presence of vehicle and in the presence of increasing concentrations of Compound A. The results are expressed in FIG. 2. Compound A, at a mean concentration of 2 nM that had little effect on AV interval at 200 bpm induced AV block within 30 seconds during the 300 bpm episode.

[6] = heart rate spontaneous (appro. 170 bpm)
[7] = spontaneously beating guinea pig heart
[8] = paced at 300-360 beats per minute

## CCNC(=O)[C@H]1O[C@@H](n2cnc3c(NC4CCCC4)ncnc32)[C@H](O)[C@@H]1O [Compound A, ethyl N^6-cyclopentyladenosine-5′-uronamide]
Adenosine A1 receptor [1]
  effect on coronary blood flow: no effect
Adenosine A1 receptor [2]
  mean concentration at maximal increase in S-V interval: 6.8 nM
  mean concentration for AV conduction blockade: 8.3 nM
[3]; Cavia porcellus, spontaneously beating guinea pig heart, read-out: EC50 for decrease in heart rate
  EC50: 0.0032 µM
[3]; [6]
  Mean Concentration of Compound A Required to Produce Maximal AV Interval: 11.7 nM
  Mean Minimal Concentration of Compound A Required to Produce Heart Block: 13 nM
[3]; [7]
  maximal decrease in heart rate: 58%
  maximal increase in AV interval over basal values: 34%
[4]; Cavia porcellus, paced at 300-360 beats per minute, read-out: EC50 for increase in coronary perfusate flow
  EC50: 0.032 µM
[4]; increase from a mean flow rate of 8.5 mL/min, paced at 300-360 bpm
  mean coronary perfusate flow rate reached: 14.2 mL/min
[4]; [8]
  mean concentration producing heart block: 1.09 nM
  mean concentration that produced a maximal increase in AV conduction time: 0.76 nM
  potency at slowing AV conduction versus increasing coronary perfusate flow: greater than 40 fold
[4]; paced at 300-360 beats per minute, at 0.76 nM
  mean maximal increase in AV interval: 23%
[5]; 2 nM, 200 bpm pacing before the episode
  effect on AV interval at 200 bpm pacing: little effect
[5]; 2 nM, 300 bpm pacing
  time to AV block during the 300 bpm episode: ≤ 30 s
[5]; 2 nM, after the 300 bpm episode
  AV interval when pacing was returned to 200 bpm: returned to near normal values
[5]; PSVT model, 300 bpm episode
  mean concentration inducing AV block during the 300 bpm pacing episode: 2 nM
